B1: Chemerin: 140 amino acid mouse Chemerin protein of Sequence ID no: 34 (protein, listed as Mus sp.)
chain: TVGTEPELSETQRRSLQVALEEFHKHPPVQLAFQEIGVDRAEEVLFSAGTFVRLEFKLQQTNCPKKDWKKPECTIKPNGRRRKCLACIKMDPKGKILGRIVHCPILKQGPQDPQELQCIKIAQAGEDPHGYFLPGQFAFS

Columns and labels:
[1] = tested on: Murine peritoneal macrophages (PMΦ); assay: Macrophage activation assay: LPS/IFNγ-induced inflammatory cytokine expression (ELISA, Luminex); type: cell-based, mouse; settings: for Percentage inhibition of LPS/IFNγ-induced inflammatory cytokine expression: RANTES / Percentage inhibition of LPS/IFNγ-induced inflammatory cytokine expression: TNFα / Percentage inhibition of LPS/IFNγ-induced inflammatory cytokine expression: IL-1β / Percentage inhibition of LPS/IFNγ-induced inflammatory cytokine expression: IL-6 / Percentage inhibition of LPS/IFNγ-induced inflammatory cytokine expression: IL-12 p40: PMΦ; for Percentage inhibition of LPS/IFNγ-induced inflammatory cytokine expression: RANTES / Percentage inhibition of LPS/IFNγ-induced inflammatory cytokine expression: TNFα: pre-treatment 1 h (0.1 pM-100 nM), then LPS 100 ng/ml + IFNγ 20 ng/ml 15 h, optimal dose (1 pM Chemerin and C15, 100 pM C13 and C19); for Anti-inflammatory activity in the MΦ activation assay: peptides 0.1 pM-100 nM; for Suppression of LPS/IFNγ-induced RANTES secretion (FIG. 2B) / Suppression of LPS/IFNγ-induced TNFα expression (FIG. 2B): C13m 100 pM, C15m 1 pM, C17m 1 pM, pre-treatment 1 h then LPS/IFNγ 15 h; for Percentage inhibition of LPS/IFNγ-induced inflammatory cytokine expression: IL-1β / Percentage inhibition of LPS/IFNγ-induced inflammatory cytokine expression: IL-6 / Percentage inhibition of LPS/IFNγ-induced inflammatory cytokine expression: IL-12 p40: pre-treatment 1 h, then LPS/IFNγ 15 h, 1 pM Chemerin and C15; for Optimal dose (maximal response) for suppression of LPS/IFNγ-induced cytokine expression: macrophage activation assay
Method: Murine peritoneal macrophages (PMθ, also referred to as PMΦ herein) were cultured under various conditions: Untreated; LPS (100 ng/ml) and IFNγ (20 ng/ml) for 15 h; Chemerin (1 pM) pre-treatment for 1 h then LPS/IFNγ for 15 h; Leupeptin (protease inhibitor; 15 mg/ml) and Chemerin (1 pM) for 1 h then LPS/IFNγ for 15 h; or Dexamethasone (positive control; 1 μM pre-treatment for 1 h then LPS/IFNγ for 15 h.
Murine PMθ were cultured under various conditions: Untreated, LPS (100 ng/ml) and IFNγ (20 ng/ml) for 15 h; Chemerin peptides (at a concentration of 1 pM-100 nM) pre-treatment for 1 h then LPS/IFNγ for 15 h. […] Experiments were performed with triplicate determinations for each treatment. Representative data from five independent experiments employing cells from different groups of C57B16/J mice are shown. p<0.01 **; p<0.001 *** relative to LPS/IFNγ treated samples.
With reference to Table 1, anti-inflammatory activity of chemerin-derived peptides—Murine PMΦ were cultured as described for FIG. 1B and were challenged with LPS (100 ng/ml) and IFNγ (20 ng/ml) for 15 h with/without pre-treatment with peptides (0.1 pM-100 nM) for 1 h. […] Peptide sequences are: C11 (P144-A154; […]), C13 (P144-S156; […]), C15 (A140-A154; […]), C19 (A138-S156; […]; Seq ID: No. 37), N19 (E23-K41; […] Seq ID No: 44) and M20 (K86-K105; […] Seq ID No. 45). Control peptides: scrambled C15 (C15-S; […]) and mutant C15 (C15-M; […]; F148A & F153A). Data represent mean percentage inhibition of cytokine production by classically activated macrophages from 4-8 independent experiments as determined by ELISA and Luminex assay.
1 ml 2% BioGEL polyacrylamide beads in sterile Phosphate-Buffered Saline (PBS) were injected intraperitoneally (ip) into C57B1/6J mice. Four days after ip BioGEL administration, mice were sacrificed by the CO, method according to Home Office guidelines. Peritoneal cavities were flushed with 10 ml sterile PBS-2 mM EDTA to harvest BioGEL-evoked/elicited cellular infiltrate. Suspensions of harvested cells were centrifuged at 1000×g for 5 mins at 4° C. The supernatants were discarded and cell pellets were resuspended in 6 mls OptiMEM medium supplemented with 2 mM Glutamine, 50 units/ml Penicillin and 50 μg/ml Streptomycin. Macrophages were quantified following incubation on ice for 5-10 mins with Turk's solution using a haemocytometer. Cell suspensions (2 mls; 1.5×10^6/well) were plated in six-well tissue culture plates (35 mm diameter: Costar, UK) and allowed to adhere for 2 hours at 37° C. in a humidified atmosphere containing 5% CO2, to isolate macrophage populations by adherence. This gave greater than 95% purity assessed by cytospinning, staining of cells with Methylene Blue and Eosin and counting based on cellular morphology. Nonadherent cells (mainly granulocytes) were discarded and wells were washed three times with sterile PBS to remove loosely adherent or dead cells. […] To determine PTX sensitivity and dependency upon proteolysis, cells were pre-incubated with PTX (200 ng/ml) or Leupeptin (15 μg/ml). Additional cells were treated with peptides alone. Supernatants were harvested and stored at −20° C. until use in Enzyme-Linked Immunosorbance Assays (ELISAs) and Luminex assays. Cells were lysed to allow extraction of total RNA by the TRIZOL method. Lysates were stored at −80° C. until RNA extraction following manufacturer's guidelines (Qiagen, RNeasy Mini Prep Kit).
RANTES, Tumour necrosis factor (TNFα) and CCL9 concentrations in cell supernatants were assessed by ELISA. IL-12 p40, IL-10, IL-1β, TNFα, MCP-1 (Monocyte chemoattractant protein-1) and IL-6 levels were determined by Luminex multiplex bead assay (Bio-rad 6 plex assay). Lower limits of detection for ELISAs were 0.1-0.5 ng/ml and 10-50 pg/ml for Luminex assays.

[2] = tested on: PMΦ (peritoneal macrophages); assay: Secondary chemotaxis assay towards conditioned media from treated macrophages; type: cell-based, mouse; settings: relative to LPS/IFNγ conditioned medium
Text: Given the well established role of MΦ-derived chemoattractants in the recruitment of immune cells during inflammation (Glabinski, A. R., et al., (1998). Neuroimmunomodulation 5:166-171; Huang, D. J. et al., (2001). J. Exp. Med. 193:713-726), conditioned media was used from untreated MΦ and MΦ treated with chemerin+LPS/IFNγ, C15+LPS/IFNγ and LPS/IFNγ alone in chemotaxis assays to assess how suppression of MΦ activation by chemerin and the synthetic C-terminal peptide, C15 might affect further MΦ recruitment (See FIG. 4H).
Conditioned media from macrophages treated with C140+LPS/IFNγ, C15m+LPS/IFNγ, C17m+LPS/IFNγ and LPS/IFNγ alone were used in secondary chemotaxis assays to assess the potential pathophysiological repercussions associated with suppression of macrophage activation by C140 and its C-terminal peptides.
Cells (0.5×10^6) were allowed to migrate towards chemoattractant (Chemerin peptides) or conditioned media in the bottom well of a modified Boyden chamber over 4 h. Serum free media (SFM) was used as a negative control. Filters were fixed in 4% formalin, then nuclei were stained with DAPI and visualised. Bar graphs indicate mean Migration Index (Chemoattractant % threshold area/SFM % threshold area)±SEM for each treatment group. Each bar represents at least triplicate wells and 6 pictures taken per treatment. p<0.001 ***; p<0.01 ** significance is relative to LPS/IFNγ conditioned media unless otherwise stated. AB refers to anti-murine Chemerin antibody.
Cell migration was assessed by use of transwell membranes (ChemoTX, 6-mm diameter, 8-μm pore size). Briefly, BioGEL-elicited cells were harvested and placed on transwell membranes (250 000 cells/membrane in RPMI supplemented with 25 mM Hepes and 0.1% bovine serum albumin. Cells were allowed to migrate toward Chemerin peptides (1 pM-100 nM) for 4 h. Signal transduction via G protein-coupled receptors was blocked by preincubating cells with pertussis toxin (PTX, 200 ng/ml, Sigma-Aldrich) for 30 mins before placing cells on transwell membranes. Migrated cells on the underside of membranes were fixed (3% formaldehyde) and stained with DAPI. Migration was quantified as total pixel count of DAPI stained nuclei under the confocal microscope (2 photos/membrane and a minimum of 3 replicate wells per treatment). Images were analyzed using Metamorph Offline software to determine percentage threshold areas (TA) occupied by migrated cells. Migration indices were obtained by dividing treatment TA by serum-free media TA. For secondary chemotaxis assays ChemoTx 3-mm diameter, 8-μm pore membranes were used with 50 000 cells/membrane.

| Molecule | Percentage inhibition of LPS/IFNγ-induced inflammatory cytokine expression: RANTES [1] [%] | Percentage inhibition of LPS/IFNγ-induced inflammatory cytokine expression: TNFα [1] [%] | Anti-inflammatory activity in the MΦ activation assay [1] | Suppression of LPS/IFNγ-induced RANTES secretion (FIG. 2B) [1] [%] | Suppression of LPS/IFNγ-induced TNFα expression (FIG. 2B) [1] [%] | Percentage inhibition of LPS/IFNγ-induced inflammatory cytokine expression: IL-1β [1] [%] | Percentage inhibition of LPS/IFNγ-induced inflammatory cytokine expression: IL-6 [1] [%] | Percentage inhibition of LPS/IFNγ-induced inflammatory cytokine expression: IL-12 p40 [1] [%] | Optimal dose (maximal response) for suppression of LPS/IFNγ-induced cytokine expression [1] [pM] | Macrophage chemotaxis towards conditioned media from treated + LPS/IFNγ macrophages (FIG. 5) [2] | Reduction of MΦ chemotaxis towards conditioned media from treated + LPS/IFNγ macrophages (FIG. 4H) [2] [%] | Pertussis toxin sensitivity of the effects on macrophages (FIG. 1D) ([1]; chemerin 0.1-1 pM ± PTX 200 ng/ml) |
| --- | --- | --- | --- | --- | --- | --- | --- | --- | --- | --- | --- | --- |
| AGEDPHGYALPGQAA (Mutant C15) [C15-M, control peptide, mutant C15 (F148A & F153A), reference compound] | 0 | 0 | devoid of anti-inflammatory activity | – | – | – | – | – | – | – | – | – |
| AGEDPHGYFLPGQFA (listed as Mus sp.) [C15] | 47 | 61 | – | 41 | 56 | 54 | 43 | 47 | 1 | reduced chemotaxis | 55 | – |
| AGEDPHGYFLPGQFAFS (listed as Mus sp.) [C17m] | – | – | – | 49 | 66 | – | – | – | – | reduced chemotaxis | – | – |
| GLFHDQAGPPAGYEF (Scrambled C15) [C15-S, control peptide, scrambled C15, reference compound] | 0 | 0 | devoid of anti-inflammatory activity | – | – | – | – | – | – | – | – | – |
| B1 | 40 | 70 | – | – | – | 60 | 42 | 54 | 1 | reduced chemotaxis | 49 | pertussis toxin-sensitive |

— patent US8906865B2, “Treatment of inflammation and/or endotoxic shock” (ISIS Innovation Limited, priority 2007, dated 2014)
